Measurements as given in patent US5750139A (priority 1994, dated 1998).
Read-outs that look alike come from different tables or passages of the source.

Assays:
[1] = system: rat skin versus human skin; settings: cited from earlier work
[2] = cited from earlier work
[3] = GCP-complying pharmacokinetic study of TDS with 14 healthy volunteers; format: in vivo, human
[4] = intra-individual pharmacokinetics, TDS versus oral tablet, one healthy volunteer; format: in vivo, human
Experimental: For better comparability, some pharmacokinetic preliminary experiments were carried out on one and the same healthy volunteer (i.e. intra-individually).

rat skin = settings: cited from earlier work
[5] = diffusion/dialysis of benzopyrone from formulation through cellulose membrane (layer thickness, pore size, viscosity); format: physicochemical
Description: When the same formulation was used, for example, the diffusion rate increased only by a factor of 1.6 when the pore volume was increased from 20 kD to 100 kD.

inflamed target tissues = settings: in vivo
[6] = 96 h application of a TDS: bioavailability, blood levels of benzopyrone during application and after removal
[7] = kinetics of active ingredient diffusion through the membrane in vitro; format: physicochemical
Experimental: The TDS to be tested were preselected by means of in vitro measurements of the dialysis of benzopyrone from the TDS investigated. For this purpose, the TDS available was stuck, on the side facing the skin, i.e. the membrane side, by means of the adhesive layer, in a dialysis apparatus and was dialyzed against an excess of a solution of polyethylene glycol 400 or against an albumin or saline solution for at least 24 h. […] The half-lives for a 50% and 95% diffusion yield (t/2 50% and t/2 95%, respectively) were calculated from the linear part of the dialysis curves. For example, three selected formulations gave the following half-lives (Table 1): […]

[8] = human, in vivo, topical or ocular
[9] = human, blood, topical or ocular, 200 mg

COC1=CC(=O)C[C@@H](C)[C@]12Oc1c(Cl)c(OC)cc(OC)c1C2=O [griseofulvin]
penetration of rat skin more readily than human skin [1]: 14 times

O=C(O)[C@H]1O[C@@H](Oc2ccc3ccc(=O)oc3c2)[C@H](O)[C@@H](O)[C@@H]1O [glucuronide (III)]
pharmacological activity ([2]; in vivo): pharmacologically inactive

O=c1ccc2ccc(O)cc2o1 [7-hydroxybenzopyrone]
decrease of blood levels of 7-hydroxybenzopyrone ([3]; after removal of the TDS): decreased rapidly
blood levels of II, TDS lower than after oral dose ([4]; TDS versus oral): 6-10 times
maximum blood concentrations of II, TDS versus oral, based on the same absorbed dose ([4]; TDS versus oral, same absorbed dose): approximately comparable
blood levels of 7-hydroxybenzopyrone, oral compared with transdermal ([4]; oral versus transdermal): substantially higher
glucuronidation step faster than preceding oxidation reaction ([2]; liver, coupled metabolic conversion): about 3.5 times

CC1(C)C(C=C(Cl)Cl)C1C(=O)OC(C#N)c1cccc(Oc2ccccc2)c1 (centres unmarked) [cypermethrin]
penetration of rat skin more readily than human skin [1]: 20 times

O=c1ccc2ccccc2o1 [benzopyrone, 5,6-benzo-alpha-pyrone]
unabsorbed proportion of benzopyrone after 12 hours (rat skin; 1 g of 5% ointment over 30 cm^2, rat 1): 1.95 percent by weight
unabsorbed proportion of benzopyrone after 12 hours (rat skin; 1 g of 5% ointment over 30 cm^2, rat 2): 13.24 percent by weight
unabsorbed proportion of benzopyrone after 12 hours (rat skin; 1 g of 5% ointment over 30 cm^2, rat 3): 42.8 percent by weight
dialyzable amount of benzopyrone with increasing layer thickness ([5]; 20% formulation, cellulose membrane 20 kD, 2.5 cm^2): increases with increasing layer thickness until the saturation limit of the control membrane is reached and then remains constant
Amount of benzopyrone diffusing within 8 h ([5]; layer thickness 0.1 mm, 20% formulation, cellulose membrane 20 kD, 2.5 cm^2): 8 mg
Amount of benzopyrone diffusing within 8 h ([5]; layer thickness 0.2 mm, 20% formulation, cellulose membrane 20 kD, 2.5 cm^2): 14 mg
Amount of benzopyrone diffusing within 8 h ([5]; layer thickness 0.4 mm, 20% formulation, cellulose membrane 20 kD, 2.5 cm^2): 14 mg
rate of dialysis of the benzopyrone ([5]; on increasing the viscosity of the formulation): considerably reduced
factor of increase of the diffusion rate ([5]; pore volume increased from 20 kD to 100 kD, same formulation): 1.6
concentration at 4 h ([3]; human, blood, topical or ocular, 4 h after removal of the TDS (200 mg)): 4.96 ng/mL
concentration at 3 h ([3]; human, blood, topical or ocular, single TDS 200 mg, application time 3 h): 23.4 ng/mL
concentration at 24 h ([3]; human, blood, topical or ocular, single TDS 200 mg, application time 24 h): 27.3 ng/mL
time to steady state of blood benzopyrone level ([3]; single TDS 200 mg): 3 h
blood levels of benzopyrone (I), transdermal higher than after oral administration ([4]; TDS versus oral): 10 times
maximum blood levels of (I), TDS higher than after oral, based on same dose absorbed per day ([4]; human, in vivo, po): 57 times
Tmax ([4]; human, in vivo, po, t max of benzopyrone (I)): 3 h
bioavailability at 48 h [4, 8]: 35%
accumulation in tissue (inflamed target tissues): preferably accumulates in inflamed target tissues
active ingredient release over total application time ([6]; 96 h application): linear
release of benzopyrone over 96 h ([6]; TDS worn 4 days): takes place in a constant manner
concentration at 3 h [6, 9]: 2.4 ng/mL
concentration at 6 h [6, 9]: 0.8 ng/mL
concentration at 48 h [6, 9]: 5.5 ng/mL
concentration at 72 h [6, 9]: 6.1 ng/mL
concentration at 82 h [6, 9]: 8.7 ng/mL
concentration at 96 h [6, 9]: 6.6 ng/mL
bioavailability at 96 h [6, 8]: 70%
kinetics of active ingredient diffusion through the membrane [7]: linear kinetics
first pass metabolism in the liver ([2]; oral application): virtually quantitative
unchanged benzopyrone entering the circulation from the liver ([2]; oral application): virtually no unchanged benzopyrone
